In patent publication US20240318182A1, “METHODS OF TREATING OR PREVENTING SPINAL MUSCULAR ATROPHY” (BIOGEN MA INC., priority 2019, published 2024):

Columns and labels:
[1] = human, in vivo
Experimental: In studies to explore the relationship between nusinersen exposure and clinical response, data from subjects with infantile-onset SMA (subjects <6 months of age at diagnosis or symptom onset) were used. Analyses were conducted to characterize a quantitative PK/PD relationship for nusinersen and to determine if higher nusinersen exposure is associated with additional efficacy in the infantile-onset SMA population.

[2] = test system: subjects with infantile-onset SMA; assay: PK/PD (Emax) model of CSF Ctrough versus change from baseline in CHOP-INTEND; design: species or system human; conditions: model projection
Description: Dashed (long), solid, and dashed (shorter) line represents the predicted PK/PD relationship when Emax was fixed at 10, 25, and 40, respectively. The observed data are divided based on 10 quantiles of CSF Ctrough values. The empty and filled circles represent the mean observed and predicted change in CHOP-INTEND from baseline, respectively.

[3] = test system: nonhuman primate; assay: Nonhuman primate safety studies; assay type: in vivo
[4] = test system: pNf-H; assay: Plasma pNf-H biomarker in nusinersen clinical trials; assay type: in vivo, human; conditions: SMA types 1, 2 and presymptomatic infants
Description: In nusinersen clinical trials with SMA types 1, 2 and presymptomatic infants, plasma pNf-H differentiated SMA individuals from healthy controls. […] Thus assessing the levels of neurofilament (e.g., pNf-H and/or NfL) can be a helpful biomarker prior or during treatment.

[5] = test system: subjects with infantile-onset SMA; assay: Exposure-response and motor function / motor milestones in nusinersen clinical studies; assay type: in vivo, human
Experimental: During the nusinersen clinical development program, an exploratory exposure-response analysis was conducted using data for 14 subjects with infantile-onset SMA who received nusinersen. […] All subjects received maintenance doses of 12 mg every 4 months after Day 85. Separation of the response curves for the 2 cohorts began around Day 29 and became wider over the course of the study.

nusinersen
maximum mean [SD] CSF Ctrough [1]: 31.3 [24.8] ng/mL
CSF Ctrough that will achieve 90% of the maximum observed response [2]: 23 ng/mL
safety of 28 and 50 mg doses [3]: support the use of these doses
plasma pNf-H after treatment initiation [4]: rapid decline followed by stabilization
attainment of motor milestones ([5]; 12 mg loading doses versus 6 mg loading doses on Days 1, 15, 85, infantile-onset SMA): earlier and greater improvement
correlation between nusinersen CSF exposure and motor function ([5]; 14 subjects with infantile-onset SMA, exploratory exposure-response analysis): statistically significant positive correlation
correlation between CSF Ctrough and total motor milestones scores ([5]; infantile- or later-onset SMA, 12 mg as 4 loading doses then every 4 months, preliminary analysis, data not shown): positive correlation
improvement in motor function ([5]; more frequent dosing: 12 mg loading Days 1, 15, 29, 64, 12 mg maintenance every 4 months, infantile-onset SMA): Greater improvement
